From publication PMC11076983, “Baicalin and baicalein from Scutellaria baicalensis Georgi alleviate aberrant neuronal suppression mediated by GABA from reactive astrocytes” (CNS Neuroscience & Therapeutics, 2024)
Where two headings read alike, the source gives them in different places.

Target: T1, monoamine oxidase B (MAO-B) (Homo sapiens, UniProt P27338)
T1 construct: gene MAOB; Human recombinant MAO-B (Sigma, M7441)
T1 sequence (P27338 2-520): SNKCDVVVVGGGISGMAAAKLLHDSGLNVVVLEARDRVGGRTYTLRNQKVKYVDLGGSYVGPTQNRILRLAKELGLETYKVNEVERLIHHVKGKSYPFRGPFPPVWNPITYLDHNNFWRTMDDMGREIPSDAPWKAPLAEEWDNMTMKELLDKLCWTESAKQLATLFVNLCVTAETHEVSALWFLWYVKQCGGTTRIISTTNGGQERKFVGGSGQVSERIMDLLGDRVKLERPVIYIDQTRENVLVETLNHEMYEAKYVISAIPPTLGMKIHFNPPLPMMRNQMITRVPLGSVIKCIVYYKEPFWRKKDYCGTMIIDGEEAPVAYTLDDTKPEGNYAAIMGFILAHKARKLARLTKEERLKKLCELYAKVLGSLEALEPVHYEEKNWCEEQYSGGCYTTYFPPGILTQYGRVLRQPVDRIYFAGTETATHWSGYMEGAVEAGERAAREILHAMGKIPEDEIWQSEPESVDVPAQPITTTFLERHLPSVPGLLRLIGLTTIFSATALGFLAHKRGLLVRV
Test: in vitro MAO-B enzyme activity assay with recombinant human enzyme
Type: biochemical

Row | SMILES | IC50 | IC50 (read-out: IC50)
1 | O=c1cc(-c2ccccc2)oc2cc(O)c(O)c(O)c12 [baicalein] | 21 µM | –
2 | O=C(O)[C@H]1O[C@@H](Oc2cc3oc(-c4ccccc4)cc(=O)c3c(O)c2O)[C@H](O)[C@@H](O)[C@@H]1O [baicalin] | – | 6.26 µM
3 | COc1c(O)cc(O)c2c(=O)cc(-c3ccccc3)oc12 [wogonin] | 79.2 µM | –
